Test results published in patent US12157741B2, “Macrocyclic inhibitors of DYRK1A” (DANA-FARBER CANCER INSTITUTE, INC., priority 2018, dated 2024).
Like-named read-outs stand apart in the source and are kept apart here.

Legend:
Assay type in all cases: binding
[1] = biological target: T1, various enzymes (Homo sapiens, UniProt Q08881); conditions: compound 1 uM
T1 sequence (Q08881 1-620): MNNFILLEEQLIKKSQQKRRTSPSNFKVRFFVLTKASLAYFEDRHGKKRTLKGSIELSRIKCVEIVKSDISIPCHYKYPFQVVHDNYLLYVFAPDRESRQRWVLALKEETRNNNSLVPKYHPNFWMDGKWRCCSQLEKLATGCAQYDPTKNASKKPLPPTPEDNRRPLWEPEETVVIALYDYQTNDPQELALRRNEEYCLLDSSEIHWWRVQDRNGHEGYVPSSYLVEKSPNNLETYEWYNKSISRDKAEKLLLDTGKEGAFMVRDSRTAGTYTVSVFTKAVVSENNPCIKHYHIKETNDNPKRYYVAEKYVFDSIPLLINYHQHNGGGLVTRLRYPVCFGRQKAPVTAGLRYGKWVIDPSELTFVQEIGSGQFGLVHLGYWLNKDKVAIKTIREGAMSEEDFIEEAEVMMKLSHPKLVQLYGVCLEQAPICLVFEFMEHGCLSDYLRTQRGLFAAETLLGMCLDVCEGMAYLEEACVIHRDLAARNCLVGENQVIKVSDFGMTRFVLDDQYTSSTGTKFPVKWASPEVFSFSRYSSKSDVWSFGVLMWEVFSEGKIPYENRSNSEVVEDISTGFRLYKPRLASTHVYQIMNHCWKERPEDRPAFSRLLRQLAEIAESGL
Description: (§1) Ambit profiling was conducted in accordance with the manufacturer's instructions.

[2] = biological target: various enzymes (Homo sapiens, UniProt P0C264); conditions: compound 1 uM
Description: as §1

[3] = biological target: various enzymes (Homo sapiens, UniProt Q16512); conditions: compound 1 uM
Description: as §1

[4] = biological target: various enzymes (Homo sapiens, UniProt P16591); conditions: compound 1 uM
Description: as §1

[5] = biological target: various enzymes (Homo sapiens, UniProt P54764); conditions: compound 1 uM
Description: as §1

[6] = biological target: various enzymes (Homo sapiens, UniProt P10721, D816H)
Description: as §1

[7] = biological target: various enzymes (Homo sapiens, UniProt Q8NI60); conditions: compound 1 uM
Description: as §1

[8] = biological target: various enzymes (Homo sapiens, UniProt Q8N5S9); conditions: compound 1 uM
Description: as §1

[9] = biological target: various enzymes (Homo sapiens, UniProt Q16832); conditions: compound 1 uM
Description: as §1

[10] = biological target: various enzymes (Homo sapiens, UniProt Q9Y6M4); conditions: compound 1 uM
Description: as §1

[11] = biological target: various enzymes (Homo sapiens, UniProt P10721, L576P)
Description: as §1

[12] = biological target: T2, various enzymes (Homo sapiens, UniProt P45985); conditions: compound 1 uM
T2 sequence (P45985 1-399): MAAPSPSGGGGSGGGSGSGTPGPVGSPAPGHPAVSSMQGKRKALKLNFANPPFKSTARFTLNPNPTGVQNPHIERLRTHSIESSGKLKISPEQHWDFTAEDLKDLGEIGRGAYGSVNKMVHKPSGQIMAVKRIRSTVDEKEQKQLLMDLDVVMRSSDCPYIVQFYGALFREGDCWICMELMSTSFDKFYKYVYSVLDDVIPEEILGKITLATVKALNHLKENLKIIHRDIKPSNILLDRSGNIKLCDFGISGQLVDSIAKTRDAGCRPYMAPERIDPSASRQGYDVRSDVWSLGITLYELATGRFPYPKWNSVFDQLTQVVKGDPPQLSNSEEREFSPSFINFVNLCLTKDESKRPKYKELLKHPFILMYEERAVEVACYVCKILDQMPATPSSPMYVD
Description: as §1

[13] = biological target: various enzymes (Homo sapiens, UniProt Q9Y2U5); conditions: compound 1 uM
Description: as §1

[14] = biological target: various enzymes (Homo sapiens, UniProt P08581, M1250T)
Description: as §1

[15] = biological target: various enzymes (Homo sapiens, UniProt Q9Y616); conditions: compound 1 uM
Description: as §1

[16] = biological target: various enzymes (Homo sapiens, UniProt Q9H1R3); conditions: compound 1 uM
Description: as §1

[17] = biological target: various enzymes (Homo sapiens, UniProt Q92630); conditions: compound 1 uM
Description: as §1

[18] = biological target: various enzymes (Homo sapiens, UniProt P48729); conditions: compound 1 uM
Description: as §1

[19] = biological target: various enzymes (Homo sapiens, UniProt Q8N752); conditions: compound 1 uM
Description: as §1

[20] = biological target: various enzymes (Homo sapiens, UniProt Q13882); conditions: compound 1 uM
Description: as §1

[21] = biological target: various enzymes (Homo sapiens, UniProt P10721, D816V)
Description: as §1

[22] = biological target: various enzymes (Homo sapiens, UniProt P36888, D835Y)
Description: as §1

[23] = biological target: various enzymes (Homo sapiens, UniProt Q06418); conditions: compound 1 uM
Description: as §1

[24] = biological target: various enzymes (Homo sapiens, UniProt Q9UQ88); conditions: compound 1 uM
Description: as §1

[25] = biological target: various enzymes (Homo sapiens, UniProt P07949, V804M)
Description: as §1

[26] = biological target: various enzymes (Homo sapiens, UniProt P49759); conditions: compound 1 uM
Description: as §1

[27] = biological target: various enzymes (Homo sapiens, UniProt Q9H2K8); conditions: compound 1 uM
Description: as §1

[28] = biological target: various enzymes (Homo sapiens, UniProt P57059); conditions: compound 1 uM
Description: as §1

[29] = biological target: various enzymes (Homo sapiens, UniProt Q13153); conditions: compound 1 uM
Description: as §1

[30] = biological target: various enzymes (Homo sapiens, UniProt Q9BVS4); conditions: compound 1 uM
Description: as §1

Chain of various enzymes (Homo sapiens, UniProt Q9BVS4) (Q9BVS4 whole entry): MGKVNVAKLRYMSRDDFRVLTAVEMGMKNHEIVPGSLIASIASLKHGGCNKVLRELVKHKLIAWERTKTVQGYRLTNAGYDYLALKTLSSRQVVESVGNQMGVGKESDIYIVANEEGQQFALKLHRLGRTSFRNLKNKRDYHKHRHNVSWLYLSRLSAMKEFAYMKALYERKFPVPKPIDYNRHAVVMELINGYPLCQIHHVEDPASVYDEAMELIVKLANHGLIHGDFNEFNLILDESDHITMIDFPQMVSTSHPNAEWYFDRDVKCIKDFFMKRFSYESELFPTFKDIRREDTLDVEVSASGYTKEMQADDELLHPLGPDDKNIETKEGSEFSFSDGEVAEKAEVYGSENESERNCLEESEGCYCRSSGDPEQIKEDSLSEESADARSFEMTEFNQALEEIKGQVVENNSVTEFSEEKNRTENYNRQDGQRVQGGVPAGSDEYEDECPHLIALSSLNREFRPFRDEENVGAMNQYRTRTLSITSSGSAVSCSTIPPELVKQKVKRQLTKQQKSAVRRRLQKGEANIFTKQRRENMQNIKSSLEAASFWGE
Chain of various enzymes (Homo sapiens, UniProt Q9H2K8) (Q9H2K8 whole entry): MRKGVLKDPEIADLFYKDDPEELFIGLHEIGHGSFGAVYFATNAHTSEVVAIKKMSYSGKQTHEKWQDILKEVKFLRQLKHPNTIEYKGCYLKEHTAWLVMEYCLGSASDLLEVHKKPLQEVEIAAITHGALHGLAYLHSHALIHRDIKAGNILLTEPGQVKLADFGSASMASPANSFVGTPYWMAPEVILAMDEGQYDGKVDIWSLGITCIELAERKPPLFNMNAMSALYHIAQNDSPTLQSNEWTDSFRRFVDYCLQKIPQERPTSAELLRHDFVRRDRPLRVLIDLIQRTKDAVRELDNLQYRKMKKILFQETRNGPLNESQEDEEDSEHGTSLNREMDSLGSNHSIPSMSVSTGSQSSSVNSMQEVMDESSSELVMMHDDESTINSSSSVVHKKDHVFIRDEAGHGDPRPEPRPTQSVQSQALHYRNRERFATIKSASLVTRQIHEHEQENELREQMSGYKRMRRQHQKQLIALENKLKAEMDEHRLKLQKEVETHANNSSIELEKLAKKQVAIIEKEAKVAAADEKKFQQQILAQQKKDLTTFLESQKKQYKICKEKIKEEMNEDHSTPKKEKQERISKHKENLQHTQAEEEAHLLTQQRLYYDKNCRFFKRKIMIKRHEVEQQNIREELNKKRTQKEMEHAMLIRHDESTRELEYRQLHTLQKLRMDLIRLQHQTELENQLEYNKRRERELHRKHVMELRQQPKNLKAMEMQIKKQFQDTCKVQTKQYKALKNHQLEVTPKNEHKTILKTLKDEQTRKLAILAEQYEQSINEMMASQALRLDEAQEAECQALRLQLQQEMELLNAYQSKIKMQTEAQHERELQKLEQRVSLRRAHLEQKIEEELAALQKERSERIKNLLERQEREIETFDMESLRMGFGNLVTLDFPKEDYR
Chain of various enzymes (Homo sapiens, UniProt P57059) (P57059 whole entry): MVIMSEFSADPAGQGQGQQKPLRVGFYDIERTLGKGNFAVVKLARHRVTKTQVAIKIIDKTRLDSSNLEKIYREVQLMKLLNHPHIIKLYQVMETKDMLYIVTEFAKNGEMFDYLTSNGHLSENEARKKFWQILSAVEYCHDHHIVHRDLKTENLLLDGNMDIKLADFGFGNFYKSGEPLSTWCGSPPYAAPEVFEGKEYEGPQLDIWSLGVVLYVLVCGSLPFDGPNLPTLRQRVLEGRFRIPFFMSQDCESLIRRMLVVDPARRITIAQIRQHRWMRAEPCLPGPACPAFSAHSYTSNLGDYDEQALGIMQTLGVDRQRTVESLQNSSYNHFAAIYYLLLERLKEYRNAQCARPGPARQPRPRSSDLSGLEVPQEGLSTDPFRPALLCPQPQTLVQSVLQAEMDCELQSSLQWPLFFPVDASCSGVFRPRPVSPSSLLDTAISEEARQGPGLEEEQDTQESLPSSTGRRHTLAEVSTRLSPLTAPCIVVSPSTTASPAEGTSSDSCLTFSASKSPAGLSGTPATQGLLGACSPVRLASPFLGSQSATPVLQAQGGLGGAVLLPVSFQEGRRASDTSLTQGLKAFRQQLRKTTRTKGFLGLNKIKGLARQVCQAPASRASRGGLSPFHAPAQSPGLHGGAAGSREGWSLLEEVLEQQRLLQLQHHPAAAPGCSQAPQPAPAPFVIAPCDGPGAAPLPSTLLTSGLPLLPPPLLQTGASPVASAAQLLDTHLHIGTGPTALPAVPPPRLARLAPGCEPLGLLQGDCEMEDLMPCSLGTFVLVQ
Chain of various enzymes (Homo sapiens, UniProt Q16832) (Q16832 22-855): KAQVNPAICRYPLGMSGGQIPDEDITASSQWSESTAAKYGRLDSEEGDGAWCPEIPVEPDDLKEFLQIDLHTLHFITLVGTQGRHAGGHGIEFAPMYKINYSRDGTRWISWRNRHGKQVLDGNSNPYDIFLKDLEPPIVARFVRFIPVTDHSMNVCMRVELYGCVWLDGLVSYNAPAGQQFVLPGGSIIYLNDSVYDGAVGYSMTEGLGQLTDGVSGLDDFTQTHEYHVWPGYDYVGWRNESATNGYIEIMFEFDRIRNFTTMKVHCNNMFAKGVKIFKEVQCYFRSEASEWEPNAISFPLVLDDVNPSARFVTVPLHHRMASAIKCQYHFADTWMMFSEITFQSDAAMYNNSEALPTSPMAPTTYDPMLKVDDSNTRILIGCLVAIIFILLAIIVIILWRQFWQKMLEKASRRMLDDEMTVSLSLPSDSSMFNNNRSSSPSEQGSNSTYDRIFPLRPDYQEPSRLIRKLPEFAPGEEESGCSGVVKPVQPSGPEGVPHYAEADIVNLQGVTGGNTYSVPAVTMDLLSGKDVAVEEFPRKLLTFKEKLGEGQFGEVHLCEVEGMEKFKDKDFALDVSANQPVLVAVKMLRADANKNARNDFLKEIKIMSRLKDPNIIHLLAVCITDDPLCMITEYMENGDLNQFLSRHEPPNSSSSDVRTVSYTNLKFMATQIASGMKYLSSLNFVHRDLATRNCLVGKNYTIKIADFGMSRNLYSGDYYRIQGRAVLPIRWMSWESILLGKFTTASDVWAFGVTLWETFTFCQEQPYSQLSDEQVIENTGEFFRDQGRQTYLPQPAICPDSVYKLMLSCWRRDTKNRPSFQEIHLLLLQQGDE
Chain of various enzymes (Homo sapiens, UniProt P49759) (P49759 whole entry): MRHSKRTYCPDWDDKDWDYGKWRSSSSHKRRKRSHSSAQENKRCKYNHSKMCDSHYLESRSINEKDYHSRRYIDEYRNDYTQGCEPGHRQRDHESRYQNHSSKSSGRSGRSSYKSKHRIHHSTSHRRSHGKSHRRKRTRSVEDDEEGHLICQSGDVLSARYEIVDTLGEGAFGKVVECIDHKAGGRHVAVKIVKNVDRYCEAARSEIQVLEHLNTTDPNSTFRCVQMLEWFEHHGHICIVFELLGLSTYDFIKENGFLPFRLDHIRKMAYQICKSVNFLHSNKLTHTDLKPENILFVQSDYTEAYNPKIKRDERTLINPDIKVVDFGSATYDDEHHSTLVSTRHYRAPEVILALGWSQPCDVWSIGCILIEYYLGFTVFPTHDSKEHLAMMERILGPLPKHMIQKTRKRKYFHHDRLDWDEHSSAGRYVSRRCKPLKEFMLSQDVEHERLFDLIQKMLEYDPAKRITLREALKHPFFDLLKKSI
Chain of various enzymes (Homo sapiens, UniProt Q92630) (Q92630 whole entry): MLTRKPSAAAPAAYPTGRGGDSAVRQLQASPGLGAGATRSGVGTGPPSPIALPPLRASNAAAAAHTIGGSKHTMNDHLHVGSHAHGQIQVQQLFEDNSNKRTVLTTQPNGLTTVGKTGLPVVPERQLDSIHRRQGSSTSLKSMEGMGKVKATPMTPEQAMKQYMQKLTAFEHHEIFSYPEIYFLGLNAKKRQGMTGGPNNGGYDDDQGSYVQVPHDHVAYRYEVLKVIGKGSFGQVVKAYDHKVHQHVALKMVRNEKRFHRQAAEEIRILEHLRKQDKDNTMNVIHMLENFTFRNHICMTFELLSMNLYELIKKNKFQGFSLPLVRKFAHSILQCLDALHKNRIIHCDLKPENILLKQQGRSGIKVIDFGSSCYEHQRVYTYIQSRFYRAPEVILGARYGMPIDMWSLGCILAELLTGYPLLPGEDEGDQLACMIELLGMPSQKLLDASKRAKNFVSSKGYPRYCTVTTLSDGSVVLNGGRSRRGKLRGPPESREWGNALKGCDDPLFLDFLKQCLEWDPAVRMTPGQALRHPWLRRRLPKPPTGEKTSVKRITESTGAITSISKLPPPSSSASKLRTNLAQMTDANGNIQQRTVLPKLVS
Chain of various enzymes (Homo sapiens, UniProt P16591) (P16591 whole entry): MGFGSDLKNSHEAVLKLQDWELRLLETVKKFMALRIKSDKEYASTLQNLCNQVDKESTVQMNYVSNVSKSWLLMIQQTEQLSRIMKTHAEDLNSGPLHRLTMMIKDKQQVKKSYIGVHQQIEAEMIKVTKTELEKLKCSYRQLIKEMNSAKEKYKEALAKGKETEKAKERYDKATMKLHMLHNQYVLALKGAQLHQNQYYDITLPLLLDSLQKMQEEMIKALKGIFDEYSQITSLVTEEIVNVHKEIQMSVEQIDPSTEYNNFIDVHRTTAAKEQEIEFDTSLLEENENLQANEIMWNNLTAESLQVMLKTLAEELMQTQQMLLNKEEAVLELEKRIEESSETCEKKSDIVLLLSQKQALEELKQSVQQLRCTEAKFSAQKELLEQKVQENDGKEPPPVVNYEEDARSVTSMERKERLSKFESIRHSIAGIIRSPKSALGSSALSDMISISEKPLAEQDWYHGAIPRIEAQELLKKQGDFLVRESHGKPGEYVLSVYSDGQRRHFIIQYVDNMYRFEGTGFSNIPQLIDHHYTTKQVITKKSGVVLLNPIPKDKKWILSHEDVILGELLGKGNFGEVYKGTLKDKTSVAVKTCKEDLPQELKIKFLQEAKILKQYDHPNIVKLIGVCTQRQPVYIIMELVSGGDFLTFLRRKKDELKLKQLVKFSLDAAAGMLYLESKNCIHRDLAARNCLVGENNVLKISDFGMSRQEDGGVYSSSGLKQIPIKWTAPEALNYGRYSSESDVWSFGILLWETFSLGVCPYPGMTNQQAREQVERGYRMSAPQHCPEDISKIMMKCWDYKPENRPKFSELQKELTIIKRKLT

Compound | Ambit profiling: ITK [1] | Ambit profiling: SgK110 [2] | Ambit profiling: PKN1 [3] | Ambit profiling: FER [4] | Ambit profiling: EPHA4 [5] | Ambit profiling: ADCK3 [7] | Ambit profiling: CAMKK1 [8] | Ambit profiling: DDR2 [9] | Ambit profiling: CSNK1G3 [10] | Ambit profiling: MEK4 [12] | Ambit profiling: MAP3K2 [13] | Ambit profiling: IRAK3 [15] | Ambit profiling: MYLK2 [16] | Ambit profiling: DYRK2 [17] | Ambit profiling: CSNK1A1 [18] | Ambit profiling: CSNK1A1L [19] | Ambit profiling: BRK [20] | Ambit profiling: TYRO3 [23] | Ambit profiling: CDC2L2 [24] | Ambit profiling: CLK1 [26] | also measured
CC(C)N1Cc2nn(C)cc2-c2cnc3[nH]cc(c3c2)-c2cn(nc2C(F)(F)F)CCCC1=O [Compound 45, (Z)-5-isopropyl-31-methyl-13-(trifluoromethyl)-11H,21H,31H-5-aza-2(3,5)-pyrrolo[2,3-b]pyridina-1(4,1),3(4,3)-dipyrazolacyclononaphan-6-one] | 38 | 98 | 72 | 49 | 88 | 100 | 3.6 | 13 | 100 | 0.5 | 0.45 | 2.6 | 29 | 25 | 78 | 100 | 100 | 87 | 100 | 9.9 | Ambit profiling: KIT(D816H) ([6]; compound 1 uM): 35; Ambit profiling: KIT(L576P) ([11]; compound 1 uM): 4.5; Ambit profiling: MET(M1250T) ([14]; compound 1 uM): 4.3; Ambit profiling: KIT(D816V) ([21]; compound 1 uM): 4.2; Ambit profiling: FLT3(D835Y) ([22]; compound 1 uM): 1.3; Ambit profiling: RET(V804M) ([25]; compound 1 uM): 8.2; Ambit profiling: TAOK3 [27]: 22; Ambit profiling: SIK [28]: 74; Ambit profiling: PAK1 [29]: 69; Ambit profiling: RIOK2 [30]: 74
COc1c2c(nn1C)CN(C(C)C)C(=O)CCCn1cc(c(C(F)(F)F)n1)-c1c[nH]c3ncc-2cc13 [Compound 50, (Z)-5-isopropyl-35-methoxy-31-methyl-13-(trifluoromethyl)-11H,21H,31H-5-aza-2(3,5)-pyrrolo[2,3-b]pyridina-1(4,1),3(4,3)-dipyrazolacyclononaphan-6-one] | 46 | 99 | 34 | 10 | 63 | 73 | 8 | 32 | 79 | 16 | 0.5 | 15 | 39 | 56 | 74 | 67 | 80 | 99 | 89 | 18 | Ambit profiling: KIT(D816H) [6]: 4.5; Ambit profiling: KIT(L576P) [11]: 4; Ambit profiling: MET(M1250T) [14]: 4.2; Ambit profiling: KIT(D816V) [21]: 0.35; Ambit profiling: FLT3(D835Y) [22]: 0.7; Ambit profiling: RET(V804M) [25]: 6; Ambit profiling: TAOK3 [27]: 63; Ambit profiling: SIK [28]: 57; Ambit profiling: PAK1 [29]: 76; Ambit profiling: RIOK2 [30]: 64
